Test results from patent US9861613B2, “GPR142 agonist compounds” (Eli Lilly and Company, priority 2014, dated 2018).

How the values were obtained:
[1] = target: T1, GPR142 (Mus musculus, UniProt Q7TQN9); experiment: Intraperitoneal glucose tolerance test (IPGTT); type: in vivo; settings: lean C57BL/6 mice, oral dosing 30 min before glucose challenge
T1 construct: from tissue; host or cells: whole animal, male C57BL/6 mice
T1 sequence (Q7TQN9 1-365): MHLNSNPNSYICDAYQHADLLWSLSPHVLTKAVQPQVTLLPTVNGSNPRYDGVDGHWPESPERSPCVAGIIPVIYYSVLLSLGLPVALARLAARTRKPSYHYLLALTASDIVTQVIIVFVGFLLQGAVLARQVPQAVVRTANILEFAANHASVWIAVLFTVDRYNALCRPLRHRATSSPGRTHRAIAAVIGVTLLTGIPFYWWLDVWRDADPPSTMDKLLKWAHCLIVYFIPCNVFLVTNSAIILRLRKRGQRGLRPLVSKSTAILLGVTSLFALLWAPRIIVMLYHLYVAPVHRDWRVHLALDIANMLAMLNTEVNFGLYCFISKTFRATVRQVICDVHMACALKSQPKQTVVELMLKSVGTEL
Experimental: IPGTT assay is used to examine the ability of exemplified compounds to activate GPR142 in vivo resulting in anti-diabetic efficacy, i.e. reduction in plasma glucose levels. Male C57BL/6 mice (8-10 weeks of age) are fed normal rodent chow diet and water ad libitum. On the night before the study, animals are fasted overnight in clean cages. On the morning of the study, animals are dosed orally with vehicle or compound at the indicated doses 30 minutes prior to the glucose challenge (2 g/kg) by intraperitoneal injection. Blood glucose levels are determined from tail bleeds taken immediately prior to compound dosing (−30 min) and 0, 15, 30, and 60 min after glucose challenge using handheld glucometers. Plasma is isolated from tail bleeds taken at 7 minutes after glucose challenge and used to determine insulin levels by the Rat/Mouse Insulin Elisa kit (Millipore) or MA6000 Mouse/Rat Insulin Kit (MSD). The blood glucose profile from t=0 to t=60 min is used to calculate an area under the curve (AUC) for each treatment. Percent lowering in glucose AUC is calculated for each treatment group with respect to the AUC of vehicle group. Compounds with a reduction in glucose AUC (P<0.05) is considered positive in the assay.

[2] = target: T2, mouse GPR142 (Mus musculus, UniProt Q7TQN9); experiment: GPR142 agonist effect as measured by IP-1 assay (HTRF), mouse GPR142; type: cell-based; settings: HEK293 cells expressing mouse GPR142, IP-1; Mean±SEM, n=5; read-out: EC50 against mouse GPR142 receptor
T2 construct: expressed in transfected cells; host or cells: HEK293 (G418-selected)
T2 sequence (Q7TQN9 1-365): T1 sequence (Q7TQN9 1-365)
Experimental: (§1) The purpose of this assay is to detect GPR142 agonist effect.
(§2) HEK293 cells expressing human GPR142 or mouse GPR142 are maintained in Dulbecco's modified Eagle's medium supplemented with 10% FBS and 800 μg/ml G418 (Geneticin®) at 37° C. and 5% CO2. The cells are plated in 384 well plates at 5000 cells per well and allowed 18 hours for attachment. After addition of compounds at varying concentrations ranging from 30 μM to 1 nM, cells are incubated for 1 hour. IP-1 measurements are performed using an IP-One HTRF® assay kit (Cisbio) according to manufacturer's protocol using assay buffer containing 1×HBSS (+Ca, +Mg), 0.1% BSA, 50 mM LiCl and 20 mM HEPES, pH 7.2. The reaction is stopped by addition of IP1-d2 (IP-1 coupled to an organic HTRF acceptor) followed by cryptate solution (http://www.htrf.com/usa/htrf-chemistry) and the plates are incubated at 25° C. for 1 hour. Fluorescence is read in an Envision instrument at 665 nm and 620 nm wavelength. The ratio of 665 nm/620 nm is calculated and converted to IP-1 levels using an IP-1 standard curve. The data is fit to a 4 parameter-fit logistics to determine EC50 values.

[3] = target: T3, human GPR142 (Homo sapiens, UniProt Q7Z601); experiment: GPR142 agonist effect as measured by IP-1 assay (HTRF), human GPR142; type: cell-based; settings: HEK293 cells expressing human GPR142, IP-1, Mean±SEM, n=9
T3 construct: expressed in transfected cells; host or cells: HEK293 (G418-selected)
T3 sequence (Q7Z601 1-462): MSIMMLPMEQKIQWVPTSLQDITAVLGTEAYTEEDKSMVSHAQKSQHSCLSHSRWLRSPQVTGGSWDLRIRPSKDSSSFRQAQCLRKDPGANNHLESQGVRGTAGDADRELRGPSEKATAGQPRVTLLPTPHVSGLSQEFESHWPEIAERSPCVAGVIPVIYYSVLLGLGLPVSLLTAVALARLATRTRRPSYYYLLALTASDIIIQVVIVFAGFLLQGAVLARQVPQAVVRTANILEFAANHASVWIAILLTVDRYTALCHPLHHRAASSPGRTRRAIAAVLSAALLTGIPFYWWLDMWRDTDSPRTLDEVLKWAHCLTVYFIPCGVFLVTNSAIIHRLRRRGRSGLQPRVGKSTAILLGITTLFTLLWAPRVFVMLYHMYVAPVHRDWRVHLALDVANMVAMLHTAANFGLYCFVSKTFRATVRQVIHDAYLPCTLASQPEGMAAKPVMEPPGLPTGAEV
Experimental: as §1, §2

## Cc1ncn(C)c1NC(=O)[C@@H]1CCC[C@H](N(C)C(=O)c2cccc(C(F)(F)F)c2)C1 (single isomer, unassigned; isomer 1) [Example 1, Cis-(chiral)-N-[3-[(3,5-Dimethylimidazol-4-yl)carbamoyl]cyclohexyl]-N-methyl-3-(trifluoromethyl)benzamide, isomer 1]
[1]
  ED50 in IPGTT: 4.2 mpk
[2]
  EC50: 5.46 nM
[3]
  efficacy against human GPR142 receptor: 105%
[3]; read-out: EC50 against human GPR142 receptor
  EC50: 52.6 nM
